Experimental data: patent publication US20260257998A1, “ERR MODULATORS” (University of Health Sciences and Pharmacy in St. Louis, priority 2023, published 2026)

Key:
ERRγ = biological target: T1, ERRγ (Homo sapiens, UniProt P62508); assay: ERRE luciferase reporter assay in HEK293 cells transfected with pcDNA3.1 ERRγ; type: cell-based; parameters: key to EC50 (ERRγ): ***<1 μM; **1-5 μM; *>5 μM; i.a. (inactive); details: 24 hours treatment, luciferase activity
T1 construct: expressed in transfected cells; host or cells: HEK293
T1 sequence (P62508 1-458): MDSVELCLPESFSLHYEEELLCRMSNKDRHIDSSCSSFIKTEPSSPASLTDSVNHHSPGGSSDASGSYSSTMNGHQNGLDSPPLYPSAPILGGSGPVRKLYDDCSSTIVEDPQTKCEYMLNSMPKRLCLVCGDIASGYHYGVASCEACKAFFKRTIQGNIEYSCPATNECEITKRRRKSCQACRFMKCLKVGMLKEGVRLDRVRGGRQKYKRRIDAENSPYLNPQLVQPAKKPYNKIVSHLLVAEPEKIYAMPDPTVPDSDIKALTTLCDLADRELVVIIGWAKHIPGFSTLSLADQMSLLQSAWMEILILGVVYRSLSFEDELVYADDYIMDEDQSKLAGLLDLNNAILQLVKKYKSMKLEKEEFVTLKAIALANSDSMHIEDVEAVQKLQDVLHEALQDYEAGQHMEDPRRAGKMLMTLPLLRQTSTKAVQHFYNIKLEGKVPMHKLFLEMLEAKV
Description: (§1) HEK293 cells were maintained in Dulbecco's modified Eagles medium (DMEM) supplemented with 10% fetal bovine serum at 37° C. under 5% CO2. […] Cells were transfected with ERRE reporter construct and pcDNA3.1 ERRα or ERRγ. Twenty-four-hours post-transfection, the cells were treated with vehicle or compound (various concentrations) for 24 hours (4 wells per dose). Luciferase activity was measured using the One-Glo Tox luciferase reporter assay system (Promega) and […] were calculated using GraphPad Prism software.

ERRα = biological target: T2, ERRα (Homo sapiens, UniProt P11474); assay: ERRE luciferase reporter assay in HEK293 cells transfected with pcDNA3.1 ERRα; type: cell-based; parameters: key to EC50 (ERRα): ***<1 μM; **1-5 μM; *>5 μM; i.a. (inactive); details: 24 hours treatment, luciferase activity
T2 construct: expressed in transfected cells; host or cells: HEK293
T2 sequence (P11474 1-423): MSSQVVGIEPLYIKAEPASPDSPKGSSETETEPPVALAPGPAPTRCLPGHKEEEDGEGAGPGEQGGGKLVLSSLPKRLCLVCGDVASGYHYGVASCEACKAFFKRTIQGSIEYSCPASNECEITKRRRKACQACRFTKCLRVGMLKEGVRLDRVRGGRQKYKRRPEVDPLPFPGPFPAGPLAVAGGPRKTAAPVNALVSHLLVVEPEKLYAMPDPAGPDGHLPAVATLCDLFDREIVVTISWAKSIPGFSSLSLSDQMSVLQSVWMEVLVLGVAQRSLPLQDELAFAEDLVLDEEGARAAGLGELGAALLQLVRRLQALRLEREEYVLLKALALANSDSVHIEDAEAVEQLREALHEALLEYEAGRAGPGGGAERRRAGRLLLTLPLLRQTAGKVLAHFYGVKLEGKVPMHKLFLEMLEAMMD
Description: as §1

EC50 (ERRγ) (ERRγ)	EC50 (ERRα) (ERRα)	EC50 (ERRγ)	EC50 (ERRα)	SMILES
i.a.	i.a.	–	–	Oc1ccccc1C1=NNC(c2c(O)cccc2Cl)C1 (stereo not shown) [Entry 69, 3-chloro-2-(3-(2-hydroxyphenyl)-4,5-dihydro-1H-pyrazol-5-yl)phenol]
i.a.	i.a.	–	–	Oc1c(Br)cc(Br)cc1C1CC(c2ccc3ccccc3c2)=NN1 (stereo not shown) [Entry 116, 2,4-dibromo-6-(3-(naphthalen-2-yl)-4,5-dihydro-1H-pyrazol-5-yl)phenol]
–	i.a.	1 to 5 µM	–	Fc1cccc(C2=NNC(c3ccc4ccccc4c3)C2)c1 (stereo not shown) [Entry 88, 3-(3-fluorophenyl)-5-(naphthalen-2-yl)-4,5-dihydro-1H-pyrazole]
–	–	1 to 5 µM	< 1000 nM	Oc1ccccc1C1=NNC(c2ccccc2)C1 (stereo not shown) [Entry 50, 2-(5-Phenyl-4,5-dihydro-1H-pyrazol-3-yl)phenol]
–	–	< 1 µM	< 1000 nM	COc1ccc(C2=NNC(c3ccccc3O)C2)cc1 (stereo not shown) [Entry 42, 2-(3-(4-Methoxyphenyl)-4,5-dihydro-1H-pyrazol-5-yl)phenol]
–	–	< 1 µM	< 1000 nM	Oc1ccccc1C1CC(c2ccc(Br)cc2)=NN1 (stereo not shown) [Entry 24, 2-(3-(4-Bromophenyl)-4,5-dihydro-1H-pyrazol-5-yl)phenol]
–	i.a.	> 5 µM	–	Cc1ccc(C2CC(c3ccc(Br)cc3)=NN2)c(O)c1 (stereo not shown) [Entry 61, 2-(3-(4-bromophenyl)-4,5-dihydro-1H-pyrazol-5-yl)-5-methylphenol]
–	–	> 5 µM	> 5000 nM	Oc1cccc(C2=NNC(c3cnc[nH]3)C2)c1 (stereo not shown) [Entry 102, 3-(5-(1H-imidazol-5-yl)-4,5-dihydro-1H-pyrazol-3-yl)phenol]
–	–	> 5 µM	> 5000 nM	Oc1ccccc1C1CC(c2cccnc2)=NN1 (stereo not shown) [Entry 26, 2-(3-(Pyridin-3-yl)-4,5-dihydro-1H-pyrazol-5-yl)phenol]
–	i.a.	> 5 µM	–	Oc1ccc(C2CC(c3ccccc3O)=NN2)cc1 (stereo not shown) [Entry 67, 2-(5-(4-hydroxyphenyl)-4,5-dihydro-1H-pyrazol-3-yl)phenol]
–	–	> 5 µM	1000 to 5000 nM	Oc1cccc(C2=NNC(c3ccccc3O)C2)c1 (stereo not shown) [Entry 96, 2-(3-(3-hydroxyphenyl)-4,5-dihydro-1H-pyrazol-5-yl)phenol]
i.a.	i.a.	–	–	Oc1ccccc1C1CC(c2ccccc2OC(F)(F)F)=NN1 (stereo not shown) [Entry 4, 2-(3-(2-(trifluoromethoxy)phenyl)-4,5-dihydro-1H-pyrazol-5-yl)phenol]
i.a.	i.a.	–	–	CC(C)c1ccc(O)c(C2CC(c3ccc(F)cc3)=NN2)c1 (stereo not shown) [Entry 63, 2-(3-(4-fluorophenyl)-4,5-dihydro-1H-pyrazol-5-yl)-4-isopropylphenol]
i.a.	i.a.	–	–	CC(=O)N1N=C(c2ccccc2O)CC1c1ccccc1O (stereo not shown) [Entry 15, 1-(3,5-bis(2-hydroxyphenyl)-4,5-dihydro-1H-pyrazol-1-yl)ethan-1-one]
i.a.	i.a.	–	–	FC(F)(F)c1cccc(C2=NNC(c3ccc4ccccc4c3)C2)c1 (stereo not shown) [Entry 83, 5-(naphthalen-2-yl)-3-(3-(trifluoromethyl)phenyl)-4,5-dihydro-1H-pyrazole]
–	–	1 to 5 µM	1000 to 5000 nM	Oc1ccc(C2CC(c3ccc(C(F)(F)F)cc3)=NN2)cc1 (stereo not shown) [Entry 73, 4-(3-(4-(trifluoromethyl)phenyl)-4,5-dihydro-1H-pyrazol-5-yl)phenol]
–	–	> 5 µM	> 5000 nM	Oc1ccc(C2CC(c3cccc(F)c3)=NN2)cc1 (stereo not shown) [Entry 77, 4-(3-(3-fluorophenyl)-4,5-dihydro-1H-pyrazol-5-yl)phenol]
–	–	1 to 5 µM	1000 to 5000 nM	Oc1cccc(C2CC(c3ccc(Br)cc3)=NN2)c1 (stereo not shown) [Entry 79, 3-(3-(4-bromophenyl)-4,5-dihydro-1H-pyrazol-5-yl)phenol]
–	–	1 to 5 µM	< 1000 nM	Oc1ccccc1C1=NNC(c2ccc(Br)cc2)C1 (stereo not shown) [Entry 95, 2-(5-(4-bromophenyl)-4,5-dihydro-1H-pyrazol-3-yl)phenol]

EC50 (ERRγ) (ERRγ)	EC50 (ERRα) (ERRα)	EC50 (ERRγ)	EC50 (ERRα)	SMILES
i.a.	i.a.	–	–	COc1ccccc1C1=NNC(c2cccc(Cl)c2O)C1 (stereo not shown) [Entry 60, 2-chloro-6-(3-(2-methoxyphenyl)-4,5-dihydro-1H-pyrazol-5-yl)phenol]
–	–	> 5 µM	> 5000 nM	Oc1ccccc1C1CC(c2cccs2)=NN1 (stereo not shown) [Entry 17, 2-(3-(Thiophen-2-yl)-4,5-dihydro-1H-pyrazol-5-yl)phenol]
–	–	1 to 5 µM	1000 to 5000 nM	Oc1ccccc1C1CC(c2cccc(Cl)c2)=NN1 (stereo not shown) [Entry 142, 2-(3-(3-chlorophenyl)-4,5-dihydro-1H-pyrazol-5-yl)phenol]
–	–	< 1 µM	< 1000 nM	Nc1ccccc1C1CC(c2ccccc2)=NN1 (stereo not shown) [Entry 37, 2-(3-Phenyl-4,5-dihydro-1H-pyrazol-5-yl)aniline]
i.a.	–	–	1000 to 5000 nM	Oc1cccc(C2=NNC(c3ccc4cc(O)ccc4c3)C2)c1 (stereo not shown) [Entry 94, 6-(3-(3-hydroxyphenyl)-4,5-dihydro-1H-pyrazol-5-yl)naphthalen-2-ol]
i.a.	i.a.	–	–	Oc1ccccc1C1CC(c2ccc(Cl)cc2Cl)=NN1 (stereo not shown) [Entry 48, 2-(3-(2,4-Dichlorophenyl)-4,5-dihydro-1H-pyrazol-5-yl)phenol]
i.a.	i.a.	–	–	Fc1ccccc1C1=NNC(c2ccc(Cl)c(Cl)c2)C1 (stereo not shown) [Entry 110, 5-(3,4-dichlorophenyl)-3-(2-fluorophenyl)-4,5-dihydro-1H-pyrazole]
–	–	1 to 5 µM	1000 to 5000 nM	Oc1c(Cl)cccc1C1CC(c2ccc(Br)cc2)=NN1 (stereo not shown) [Entry 45, 2-(3-(4-Bromophenyl)-4,5-dihydro-1H-pyrazol-5-yl)-6-chlorophenol]
i.a.	i.a.	–	–	Fc1ccc(C2=NNC(c3ccc4ccccc4c3)C2)cc1 (stereo not shown) [Entry 91, 3-(4-fluorophenyl)-5-(naphthalen-2-yl)-4,5-dihydro-1H-pyrazole]
–	–	< 1 µM	< 1000 nM	Fc1ccccc1C1=NNC(c2ccc3ccccc3c2)C1 (stereo not shown) [Entry 106, 3-(2-fluorophenyl)-5-(naphthalen-2-yl)-4,5-dihydro-1H-pyrazole]
–	–	1 to 5 µM	1000 to 5000 nM	Cc1ccc(C2CC(c3ccccc3)=NN2)c(O)c1 (stereo not shown) [Entry 38, 5-Methyl-2-(3-phenyl-4,5-dihydro-1H-pyrazol-5-yl)phenol]
–	–	> 5 µM	1000 to 5000 nM	Oc1ccccc1C1CC(c2cccc(F)c2)=NN1 (stereo not shown) [Entry 31, 2-(3-(3-Fluorophenyl)-4,5-dihydro-1H-pyrazol-5-yl)phenol]
–	–	< 1 µM	< 1000 nM	COc1cccc(C2CC(c3ccc(Br)cc3)=NN2)c1O (stereo not shown) [Entry 36, 2-(3-(4-Bromophenyl)-4,5-dihydro-1H-pyrazol-5-yl)-6-methoxyphenol]
–	–	< 1 µM	< 1000 nM	Clc1ccccc1C1=NNC(c2ccc3ccccc3c2)C1 (stereo not shown) [Entry 101, 3-(2-chlorophenyl)-5-(naphthalen-2-yl)-4,5-dihydro-1H-pyrazole]
i.a.	i.a.	–	–	Oc1ccc(C2CC(c3ccc(C(F)(F)F)cc3)=NN2)cc1Cl (stereo not shown) [Entry 71, 2-chloro-4-(3-(4-(trifluoromethyl)phenyl)-4,5-dihydro-1H-pyrazol-5-yl)phenol]
–	–	< 1 µM	1000 to 5000 nM	Oc1cccc(C2CC(c3ccc(Cl)cc3)=NN2)c1 (stereo not shown) [Entry 10, 3-(3-(4-Chlorophenyl)-4,5-dihydro-1H-pyrazol-5-yl)phenol]
i.a.	i.a.	–	–	Cc1ccc(O)c(C2CC(c3ccc(Cl)cc3Cl)=NN2)c1 (stereo not shown) [Entry 49, 2-(3-(2,4-Dichlorophenyl)-4,5-dihydro-1H-pyrazol-5-yl)-4-methylphenol]
i.a.	i.a.	–	–	Cc1ccccc1C1=NNC(c2ccccc2O)C1 (stereo not shown) [Entry 27, 2-(3-(o-Tolyl)-4,5-dihydro-1H-pyrazol-5-yl)phenol]
i.a.	i.a.	–	–	FC(F)(F)c1cc(C2=NNC(c3ccc4ccccc4c3)C2)cc(C(F)(F)F)c1 (stereo not shown) [Entry 20, 3-(3,5-bis(trifluoromethyl)phenyl)-5-(naphthalen-2-yl)-4,5-dihydro-1H-pyrazole]
